Data reported in the NIST ThermoML archive (doi:10.1021/je5007532).
Numbers after ± are expanded uncertainties.

Assays:
[1] = for viscosity: 100 kPa, Falling or rolling sphere viscometry; for viscosity / speed of sound / mass density: Liquid; for speed of sound / mass density: 101 kPa; for speed of sound: Sing-around technique in a fixed-path interferometer; for mass density: Vibrating tube method; for surface tension liquid-gas: 294.4 K, Pendant drop shape
[2] = xn = mol fraction of the nth substance listed; details: x2 = 0; for viscosity: 100 kPa, Falling or rolling sphere viscometry; for viscosity / speed of sound / mass density: Liquid; for speed of sound / mass density: 101 kPa; for speed of sound: Sing-around technique in a fixed-path interferometer; for mass density: Vibrating tube method

`CC(C)CC(C)(C)C` [2,2,4-trimethylpentane] gave a viscosity ([1]; 293.15 K) of 0.501 ± 0.004 mPa·s, a speed of sound ([1]; 293.15 K) of 1103.2 ± 0.8 m/s and a mass density ([1]; 293.15 K) of 691.84 ± 0.17 kg/m3. It also gave a surface tension liquid-gas [1] of 18.7 ± 0.4 mN/m, a viscosity ([1]; 298.15 K) of 0.473 ± 0.004 mPa·s and a speed of sound ([1]; 298.15 K) of 1082 ± 0.8 m/s. It also gave a mass density ([1]; 298.15 K) of 687.7 ± 0.17 kg/m3, a viscosity ([1]; 303.15 K) of 0.447 ± 0.004 mPa·s and a speed of sound ([1]; 303.15 K) of 1061.4 ± 0.8 m/s. It also gave a mass density ([1]; 303.15 K) of 683.59 ± 0.17 kg/m3, a viscosity ([1]; 308.15 K) of 0.423 ± 0.004 mPa·s and a speed of sound ([1]; 308.15 K) of 1040.4 ± 0.8 m/s. For the same compound, the mass density ([1]; 308.15 K) was 679.4 ± 0.17 kg/m3, the speed of sound ([1]; 313.15 K) was 1020 ± 0.8 m/s and the mass density ([1]; 313.15 K) was 675.23 ± 0.17 kg/m3. The viscosity ([1]; 318.15 K) was 0.38 ± 0.004 mPa·s, the speed of sound ([1]; 318.15 K) was 999.3 ± 0.8 m/s and the mass density ([1]; 318.15 K) was 670.98 ± 0.17 kg/m3. The viscosity ([1]; 323.15 K) was 0.361 ± 0.003 mPa·s, the speed of sound ([1]; 323.15 K) was 979.2 ± 0.8 m/s and the mass density ([1]; 323.15 K) was 666.75 ± 0.18 kg/m3. For the same compound, the viscosity ([1]; 328.15 K) was 0.343 ± 0.003 mPa·s, the speed of sound ([1]; 328.15 K) was 958.7 ± 0.8 m/s and the mass density ([1]; 328.15 K) was 662.44 ± 0.18 kg/m3. It also gave a viscosity ([1]; 333.15 K) of 0.326 ± 0.005 mPa·s, a speed of sound ([1]; 333.15 K) of 938.6 ± 0.8 m/s and a mass density ([1]; 333.15 K) of 658.16 ± 0.18 kg/m3. It also gave a speed of sound ([1]; 338.15 K) of 918.7 ± 0.8 m/s, a mass density ([1]; 338.15 K) of 653.8 ± 0.18 kg/m3 and a speed of sound ([1]; 343.15 K) of 899 ± 0.6 m/s. The mass density ([1]; 343.15 K) was 649.4 ± 0.18 kg/m3.
In the case of `CCCCCCC` [heptane], the viscosity ([1]; 293.15 K) is reported as 0.41 ± 0.004 mPa·s, the speed of sound ([1]; 293.15 K) is reported as 1151.7 ± 0.8 m/s and the mass density ([1]; 293.15 K) is reported as 683.85 ± 0.16 kg/m3. The surface tension liquid-gas [1] was 20.3 ± 0.3 mN/m, the viscosity ([1]; 298.15 K) was 0.389 ± 0.004 mPa·s and the speed of sound ([1]; 298.15 K) was 1130.1 ± 0.8 m/s. For the same compound, the mass density ([1]; 298.15 K) was 679.61 ± 0.16 kg/m3, the viscosity ([1]; 303.15 K) was 0.368 ± 0.003 mPa·s and the speed of sound ([1]; 303.15 K) was 1109.1 ± 0.7 m/s. The mass density ([1]; 303.15 K) was 675.35 ± 0.16 kg/m3, the viscosity ([1]; 308.15 K) was 0.349 ± 0.003 mPa·s and the speed of sound ([1]; 308.15 K) was 1087.5 ± 0.7 m/s. It also gave a mass density ([1]; 308.15 K) of 671.05 ± 0.16 kg/m3, a speed of sound ([1]; 313.15 K) of 1066.6 ± 0.7 m/s and a mass density ([1]; 313.15 K) of 666.73 ± 0.16 kg/m3. The viscosity ([1]; 318.15 K) was 0.315 ± 0.003 mPa·s, the speed of sound ([1]; 318.15 K) was 1045.4 ± 0.7 m/s and the mass density ([1]; 318.15 K) was 662.38 ± 0.16 kg/m3. The viscosity ([1]; 323.15 K) was 0.3 ± 0.003 mPa·s, the speed of sound ([1]; 323.15 K) was 1024.7 ± 0.7 m/s and the mass density ([1]; 323.15 K) was 657.99 ± 0.17 kg/m3. For the same compound, the viscosity ([1]; 328.15 K) was 0.284 ± 0.003 mPa·s, the speed of sound ([1]; 328.15 K) was 1003.6 ± 0.7 m/s and the mass density ([1]; 328.15 K) was 653.57 ± 0.17 kg/m3. It also gave a viscosity ([1]; 333.15 K) of 0.271 ± 0.005 mPa·s, a speed of sound ([1]; 333.15 K) of 983 ± 0.7 m/s and a mass density ([1]; 333.15 K) of 649.11 ± 0.17 kg/m3. For the same compound, the speed of sound ([1]; 338.15 K) was 962.3 ± 0.7 m/s and the mass density ([1]; 338.15 K) was 644.6 ± 0.17 kg/m3.
In the case of `CCCCCCC` [heptane] + CC(C)CC(C)(C)C, the viscosity ([2]; 293.15 K) is reported as 0.41 ± 0.004 mPa·s, the speed of sound ([2]; 293.15 K) is reported as 1151.7 ± 0.8 m/s and the mass density ([2]; 293.15 K) is reported as 683.85 ± 0.16 kg/m3. It also gave a surface tension liquid-gas ([2]; 294.4 K, Pendant drop shape) of 20.3 ± 0.3 mN/m, a viscosity ([2]; 298.15 K) of 0.389 ± 0.004 mPa·s and a speed of sound ([2]; 298.15 K) of 1130.1 ± 0.8 m/s. The mass density ([2]; 298.15 K) was 679.61 ± 0.16 kg/m3, the viscosity ([2]; 303.15 K) was 0.368 ± 0.003 mPa·s and the speed of sound ([2]; 303.15 K) was 1109.1 ± 0.7 m/s. The mass density ([2]; 303.15 K) was 675.35 ± 0.16 kg/m3, the viscosity ([2]; 308.15 K) was 0.349 ± 0.003 mPa·s and the speed of sound ([2]; 308.15 K) was 1087.5 ± 0.7 m/s. The mass density ([2]; 308.15 K) was 671.05 ± 0.16 kg/m3, the speed of sound ([2]; 313.15 K) was 1066.6 ± 0.7 m/s and the mass density ([2]; 313.15 K) was 666.73 ± 0.16 kg/m3. For the same compound, the viscosity ([2]; 318.15 K) was 0.315 ± 0.003 mPa·s, the speed of sound ([2]; 318.15 K) was 1045.4 ± 0.7 m/s and the mass density ([2]; 318.15 K) was 662.38 ± 0.16 kg/m3. The viscosity ([2]; 323.15 K) was 0.3 ± 0.003 mPa·s, the speed of sound ([2]; 323.15 K) was 1024.7 ± 0.7 m/s and the mass density ([2]; 323.15 K) was 657.99 ± 0.17 kg/m3. For the same compound, the viscosity ([2]; 328.15 K) was 0.284 ± 0.003 mPa·s, the speed of sound ([2]; 328.15 K) was 1003.6 ± 0.7 m/s and the mass density ([2]; 328.15 K) was 653.57 ± 0.17 kg/m3. The viscosity ([2]; 333.15 K) was 0.271 ± 0.005 mPa·s, the speed of sound ([2]; 333.15 K) was 983 ± 0.7 m/s and the mass density ([2]; 333.15 K) was 649.11 ± 0.17 kg/m3. It also gave a speed of sound ([2]; 338.15 K) of 962.3 ± 0.7 m/s and a mass density ([2]; 338.15 K) of 644.6 ± 0.17 kg/m3.
